Experiment [1] concerns A.D.P. induced blood-platelet aggregation. Description: A.D.P. induced blood-platelet aggregation. Format: in vivo, Wistar rats. As to conditions: Rattus norvegicus, po; 100 mg/kg orally, rats, 3 hours after treatment, 10 μM A.D.P. solution; read-out: Percent inhibition of blood-platelet aggregation, A.D.P. The method, then:
(§1) A blood sample is taken from the jugular vein of Wistar rats. From this citrated blood and after centifugation, a plasma is reconstituted which contains 600,000 ± 20,000 blood-platelets per ml, which plasma is then used in all aggregation determinations.
(§2) 0.4 ml plasma is placed in a siliconized tube provided with a magnet bar, also siliconized. The tube is introduced into an aggregometer connected to an apparatus which records optical density variations. When light transmission has attained a stable value, 0.5 ml of a solution containing 10 μM A.D.P. (adenosinediphosphate) is added to the tube.
(§3) Blood-platelet aggregation induces an increase of light transmission, followed by a decrease subsequent to the deaggregation phase.
(§4) Different groups of 20 rats each are used, each group being orally administered 100 mg/kg of a test derivative.

Experiment [2] deals with Collagen-induced blood-platelet aggregation. The experiment can be described thus: Collagen-induced blood-platelet aggregation. Format: in vivo, Wistar rats. To be noted: Rattus norvegicus, po; 100 mg/kg orally, rats, 3 hours after treatment; read-out: Percent inhibition of blood-platelet aggregation, Collagen. The method, then: as §1, §2, §3
The A.D.P. solution is substituted with a collagen (bovine tendon extract) solution.
as §4

Experiment [3] deals with rat globules (red corpuscles). The experiment can be described thus: In vitro anti-sludge activity, curative procedure (protamine sulfate). As to conditions: 25 μg. Format: cell-based. The method, then:
(§5) Said activity was investigated in vitro and in vivo in rats.
(§6) Thrice washed rat globules are diluted to 1/250 in physiological saline. In each of 5 tubes are placed 0.6 ml of this suspension and 0.2 ml physiological saline. To each tube is then added 0-25-50-100 and 200 μg, respectively, of the test derivative contained in 0.2 ml solution. After incubation for one hour at 37° C., 0.2 ml of a solution containing 125 μg/ml protamine sulfate are added, after which the tube is then incubated again for 0.5 hour at 37° C. The globules of each tube are then examined with a Mallases cell, and the percent free globules and the percent aggregates formed by 2, 3, 4, 5 etc.. globules is then recorded.
The experiment was repeated according to a "curvative" procedure; the red corpuscles were first contacted with protamine sulfate and, after incubation for 0.5 hour, 0.2 ml containing 25 μg of test derivative were added thereto, which operation is followed by another incubation for one hour at 37° C. The results obtained are reported in Table III, in which the percent agglomerates as a function of size is indicated.

Experiment [4] relates to rat globules (red corpuscles). The experiment can be described thus: In vitro anti-sludge activity, preventive treatment (protamine sulfate). Format: cell-based. The method, then: as §5, §6

On to `O=C(OCc1ccccc1F)[C@H]1[C@@H](O)c2ccsc2CN1Cc1ccccc1F` (relative stereo) [Example 10, 4-Hydroxy-5-o-fluorobenzyloxycarbonyl-6-o-fluorobenzyl-4,5,6,7-tetrahydro-thieno[2,3-c]pyridine], for which the values for the inhibition at 100 mg/kg in experiment [1] and in experiment [2] were 62.2% and 92.1%, respectively.
As to `O=C(O)C1Cc2sc(Cl)cc2CN1Cc1ccccc1` (centres unmarked) [Example 26, 5-Benzyl-6-carboxy-2-chloro-4,5,6,7-tetrahydro-thieno[3,2-c]pyridine], in experiment [3], the “percent agglomerates, size 2” value was determined as 12%; the “percent agglomerates, size 3” value is on record as 2%; the “percent agglomerates, size 4” value stood at 0%; the “percent agglomerates, size 5” value was found to be 0%. In experiment [3], the “percent agglomerates, size 6” value amounted to 0%; the “percent agglomerates, size 7” value worked out at 0%; the “percent agglomerates, size 8” value is 0%; the “percent agglomerates, size 9” value is reported as 0%. Besides, in experiment [3], the “percent agglomerates, size 10” value is listed as 0% and the “percent free red corpuscles (size of agglomerates 1)” value (“percent free red corpuscles” for short) is 86%.
On to `O=C(OCc1ccccc1)C1Cc2sccc2CN1Cc1ccccc1` (centres unmarked) [Example 12, 5-Benzyl-6-benzyloxycarbonyl-4,5,6,7-tetrahydro-thieno[3,2-c]pyridine], for which the inhibition at 100 mg/kg in experiment [1] was 61.6%; in experiment [2] it was 90.8%.
For `CCOC(=O)C1Cc2sc(Cl)cc2CN1Cc1ccccc1` (centres unmarked) [Example 27, 2-Chloro-5-benzyl-6-ethoxycarbonyl-4,5,6,7-tetrahydro-thieno[3,2-c]pyridine], in experiment [4] (25 μg), the “percent agglomerates, size 2” value is 16%; the “percent agglomerates, size 3” value is listed as 17%; the “percent agglomerates, size 4” value worked out at 5%; the “percent agglomerates, size 5” value stood at 0%. In experiment [4] (25 μg), the “percent agglomerates, size 6” value turned out to be 0%; the “percent agglomerates, size 7” value came to 0%; the “percent agglomerates, size 8” value is 0%; the “percent agglomerates, size 9” value was determined as 0%. In addition, in experiment [4] (25 μg), the “percent agglomerates, size 10” value is recorded as 0%; the “percent agglomerates, size 11” value came to 0%; the “percent agglomerates, size 12” value is 0%; the “percent agglomerates, size 13” value is on record as 0%. The “percent free red corpuscles” value in experiment [4] (25 μg) amounted to 62%. Besides, in experiment [4] (50 μg), the “percent agglomerates, size 2” value stood at 20%; the “percent agglomerates, size 3” value is on record as 10%; the “percent agglomerates, size 4” value is 4%; the “percent agglomerates, size 5” value was 0%. In experiment [4] (50 μg), the “percent agglomerates, size 6” value is on record as 0%; the “percent agglomerates, size 7” value amounted to 0%; the “percent agglomerates, size 8” value is recorded as 0%; the “percent agglomerates, size 9” value was 0%. For the same molecule, in experiment [4] (50 μg), the “percent agglomerates, size 10” value is 0%; the “percent agglomerates, size 11” value is reported as 0%; the “percent agglomerates, size 12” value worked out at 0%; the “percent agglomerates, size 13” value turned out to be 0%. In experiment [4] (50 μg), the “percent free red corpuscles” value turned out to be 66%. In addition, in experiment [4] (100 μg), the “percent agglomerates, size 2” value was found to be 15%; the “percent agglomerates, size 3” value came out at 7%; the “percent agglomerates, size 4” value is 3%; the “percent agglomerates, size 5” value is on record as 0%. Besides, in experiment [4] (100 μg), the “percent agglomerates, size 6” value came out at 0%; the “percent agglomerates, size 7” value stood at 0%; the “percent agglomerates, size 8” value is 0%; the “percent agglomerates, size 9” value is recorded as 0%. In addition, in experiment [4] (100 μg), the “percent agglomerates, size 10” value was 0%; the “percent agglomerates, size 11” value was determined as 0%; the “percent agglomerates, size 12” value came out at 0%; the “percent agglomerates, size 13” value was 0%. For the same molecule, the “percent free red corpuscles” value in experiment [4] (100 μg) is given as 75%. Further, in experiment [4] (200 μg), the “percent agglomerates, size 2” value was determined as 9%; the “percent agglomerates, size 3” value was 5%; the “percent agglomerates, size 4” value is recorded as 2%; the “percent agglomerates, size 5” value turned out to be 0%. In experiment [4] (200 μg), the “percent agglomerates, size 6” value is 0%; the “percent agglomerates, size 7” value is 0%; the “percent agglomerates, size 8” value worked out at 0%; the “percent agglomerates, size 9” value came to 0%. In experiment [4] (200 μg), the “percent agglomerates, size 10” value came to 0%; the “percent agglomerates, size 11” value is recorded as 0%; the “percent agglomerates, size 12” value is reported as 0%; the “percent agglomerates, size 13” value is listed as 0%. Also, in experiment [4] (200 μg), the “percent free red corpuscles” value is recorded as 84%. In experiment [3], the “percent agglomerates, size 2” value was 10%; the “percent agglomerates, size 3” value is given as 3%; the “percent agglomerates, size 4” value worked out at 0%; the “percent agglomerates, size 5” value is 0%. In experiment [3], the “percent agglomerates, size 6” value was 0%; the “percent agglomerates, size 7” value amounted to 0%; the “percent agglomerates, size 8” value was determined as 0%; the “percent agglomerates, size 9” value came to 0%. Also, in experiment [3], the “percent agglomerates, size 10” value is reported as 0% and the “percent free red corpuscles” value is 87%.
As to `O=C(OCc1ccccc1)[C@H]1[C@@H](O)c2ccsc2CN1Cc1ccccc1` (relative stereo) [Example 11, 4-Hydroxy-5-benzyloxycarbonyl-6-benzyl-4,5,6,7-tetrahydro-thieno[2,3-c]pyridine], the results for the inhibition at 100 mg/kg in experiment [1] and in experiment [2] were 60.5% and 91.6%, respectively.
With `O=C(OCc1ccccc1)C1Cc2ccsc2CN1Cc1ccccc1` (centres unmarked) [Example 20, 5-Benzyloxycarbonyl-6-benzyl-4,5,6,7-tetrahydro-thieno[2,3-c]pyridine], the inhibition at 100 mg/kg is 60.4% in experiment [1] and 91.5% in experiment [2].
As for `O=C(O)C1Cc2sc(Cl)cc2CN1` (centres unmarked) [Example 4, 6-Carboxy-2-chloro-4,5,6,7-tetrahydro-thieno[3,2-c]pyridine], the results for the inhibition at 100 mg/kg in experiment [1] and in experiment [2] were 63.1% and 91.3%, respectively.
Turning to `O=C(OCc1ccc([N+](=O)[O-])cc1)C1Cc2sccc2CN1Cc1ccc([N+](=O)[O-])cc1` (centres unmarked) [Example 15, 5-p-Nitrobenzyl-6-p-nitrobenzyloxycarbonyl-4,5,6,7-tetrahydro-thieno[3,2-c]pyridine], in experiment [3], the “percent agglomerates, size 2” value worked out at 11%; the “percent agglomerates, size 3” value came out at 2%; the “percent agglomerates, size 4” value was determined as 0%; the “percent agglomerates, size 5” value was found to be 0%. In addition, in experiment [3], the “percent agglomerates, size 6” value came to 0%; the “percent agglomerates, size 7” value is given as 0%; the “percent agglomerates, size 8” value was 0%; the “percent agglomerates, size 9” value came out at 0%. In addition, in experiment [3], the “percent agglomerates, size 10” value is 0% and the “percent free red corpuscles” value was found to be 87%.
Turning to `COC(=O)C1Cc2sc(Cl)cc2CN1Cc1ccccc1Cl` (centres unmarked) [Example 30, 2-Chloro-5-o.chlorobenzyl-6-methoxycarbonyl-4,5,6,7-tetrahydro-thieno[3,2-c]pyridine], the inhibition at 100 mg/kg in experiment [1] came out at 62.4%; in experiment [2], 93%.
The corresponding values for `O=C(OCc1ccccc1Cl)[C@H]1[C@@H](O)c2sccc2CN1Cc1ccccc1Cl` (relative stereo) [Example 8, 5-o-Chlorobenzyl-6-o-chlorobenzyloxycarbonyl-7-hydroxy-4,5,6,7-tetrahydro-thieno[3,2-c]pyridine] are 61.8% and 90.4%.
Taken in the same sequence, the figures for `CCOC(=O)C1Cc2sccc2CN1C` (centres unmarked) [Example 28, 5-Methyl-6-ethoxycarbonyl-4,5,6,7-tetrahydro-thieno[3,2-c]pyridine] were 60.8% and 90.2%.
`O=C(OCc1ccccc1)[C@H]1[C@@H](O)c2sccc2CN1Cc1ccccc1` (relative stereo) [Example 7, 5-Benzyl-6-benzyloxycarbonyl-7-hydroxy-4,5,6,7-tetrahydro-thieno[3,2-c]pyridine]: in experiment [3], the “percent agglomerates, size 2” value turned out to be 12%; the “percent agglomerates, size 3” value is 3%; the “percent agglomerates, size 4” value came out at 1%; the “percent agglomerates, size 5” value is 0%. Moreover, in experiment [3], the “percent agglomerates, size 6” value stood at 0%; the “percent agglomerates, size 7” value came out at 0%; the “percent agglomerates, size 8” value is recorded as 0%; the “percent agglomerates, size 9” value amounted to 0%. Also, in experiment [3], the “percent agglomerates, size 10” value is 0% and the “percent free red corpuscles” value was found to be 84%.
As to `COc1cc(COC(=O)C2Cc3sccc3CN2Cc2cc(OC)c(OC)c(OC)c2)cc(OC)c1OC` (centres unmarked) [Example 17, 5-(3,4,5-Trimethoxy-benzyl)-6-(3,4,5-trimethoxy-benzyl-oxycarbonyl)-4,5,6,7-tetrahydro-thieno[3,2-c]pyridine], the inhibition at 100 mg/kg in experiment [1] turned out to be 61.2%; in experiment [2], 92%.

Usually inhibition stands for the change of the read-out against control, counted positive when it falls.

These data come from patent publication US4147787A, “4,5,6,7-Tetrahydro-thieno[2,3-c]-and [3,2-c]-pyridines, and therapeutic compositions containing the same” (Parcor, priority 1977, dated 1979).
